In article PMC11075021, “Asymmetric Synthesis of Chiral 2-Cyclohexenones with Quaternary Stereocenters via Ene-Reductase Catalyzed Desymmetrization of 2,5-Cyclohexadienones” (ACS Catalysis, 2024):

Molecular target: T1, YqjM (Bacillus subtilis, UniProt P54550)
T1 construct: gene namA; wild type, purified recombinant enzyme; dimer, both protomers line the active site
T1 sequence (P54550 2-338): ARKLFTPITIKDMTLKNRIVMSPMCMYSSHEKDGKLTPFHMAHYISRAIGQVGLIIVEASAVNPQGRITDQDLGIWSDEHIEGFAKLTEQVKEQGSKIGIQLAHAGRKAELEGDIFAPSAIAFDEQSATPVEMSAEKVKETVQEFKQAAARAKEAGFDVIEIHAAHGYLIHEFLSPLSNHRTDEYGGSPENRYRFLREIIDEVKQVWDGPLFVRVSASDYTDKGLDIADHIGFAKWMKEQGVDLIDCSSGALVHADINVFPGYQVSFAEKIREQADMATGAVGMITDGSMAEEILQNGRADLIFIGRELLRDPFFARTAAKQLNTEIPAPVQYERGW
Assay: stopped-flow oxidation of prereduced enzyme
Assay type: biochemical
Conditions: anoxic; no kinetic saturation in the accessible range

In the case of `C[C@@]1(c2ccccc2)C=CC(=O)CC1` [2a, cyclohexenone 2a], the “kobs at 800 μM” value is reported as “Both compounds oxidized prereduced YqjM relatively slowly”.
